Reference: PMC8742467, “Therapeutical interference with the epigenetic landscape of germ cell tumors: a comparative drug study and new mechanistical insights” (Clinical Epigenetics, 2022)

Experiments:
[1] = test system: 2102EP-R; test: Flow cytometry apoptosis (Annexin V/PI), 2102EP-R; assay type: cell-based, Human; settings: EC50, 16 h, compared to the parental cell line
[2] = test system: transcriptome of 2102EP cells; test: RNA sequencing; assay type: cell-based, Human; settings: 16 h
Protocol: Transcriptome analysis has been performed as previously described at the core facility ‘Genomics & Transcriptomics’ (Prof. Dr. Karl Köhrer, Biomedical Research Center, Heinrich Heine University, Düsseldorf, Germany) and has been publicly shared via GEO (https://www.ncbi.nlm.nih.gov/geo/, GSE189472). RNA samples were quantified and measured as previously described. Statistical analyses were performed using the ‘Differential Expression in two groups’ tool (version 1.02) (Qiagen) and the resulting p values were corrected for multiple testing by false discovery rate (FDR). Accompanying PCA and heatmap were generated using Qlucore Omics Explorer 3.7 (Qlucore AB, Lund, Sweden). Values of solvent controls wereaveraged from the studies GSE189472, GSE190792 and GSE190022 [95].

[3] = test system: CC (JAR); test: Flow cytometry apoptosis (Annexin V/PI), CC; assay type: cell-based, Human; settings: EC50, 16 h
Protocol: (§1) For Annexin V/PI staining, cells were washed with Annexin V Binding Buffer before being resuspended in 70 µl Annexin V Binding Buffer and 2.5 μl Annexin V FITC-conjugate (both Miltenyi Biotec, Bergisch Gladbach, Germany) and 15 µg PI (Sigma-Aldrich, Taufkirchen, Germany) and incubated in the dark at room temperature for 15 min. 500 µl of Annexin V Binding Buffer was added before measurement. For the cell cycle analysis, cells were washed with PBS (phosphate buffered saline), fixed by ice cold 70% ethanol and stained with 2 µg/ml PI and 200 µg/ml RNaseA (Quiagen, Hilden, Germany 100 mg/ml) in PBS shortly before every measurement. At least 5 × 10^4 cells were counted and analyzed using the MACSQuant software v 2.13.0.

[4] = test system: histone modifications in 2102EP cells; test: Mass spectrometry analysis of histone modifications (Mod Spec); assay type: cell-based, Human
Protocol: 2102EP cells were treated with the EC50 concentrations for Quisinostat, JIB-04, Chaetocin, MZ-1, LP99, PRT4165, GSK343 and DMSO as solvent control. The cells were harvested via trypsinization after 16 h. The mass spectrometric analysis of histone modifications was outsourced to the Mod Spec service by Active Motif (Carlsbad, CA, USA). Histone extraction and mass spectrometric analysis was performed as described previously. Raw data were transformed into z-scores as the input. The heatmap was generated in R using ‘pheatmap’ with default settings and provided by Active Motif.

[5] = test system: GCT cell lines; test: XTT cell viability assay, GCT cell lines (pre-screen / summary); assay type: cell-based, Human; settings: first pre-screen, XTT; read-out: EC50
Protocol: The […] (XTT) assays were performed as described previously. In summary, for GCT and fibroblast cell lines 5 × 10^3 cells (3 × 10^3 for UC, PCa and RCC cell lines) per 96-well were seeded and different drug concentrations (see Additional file 2: Fig. S2, Additional file 3: Fig. S3) or corresponding solvents were added to the cells the following day. For drug details see Additional file 12: Table S2 C. Each condition was analyzed in four technical replicates and EC50 values were calculated by GraphPad Prism v8.

[6] = test system: GCT cells; test: Flow cytometry cell cycle (PI), GCT cells; assay type: cell-based, Human; settings: EC50, 16 h
Protocol: as §1

[7] = test system: phosphorylated kinase targets in 2102EP cells; test: Proteome Profiler Human Phospho-Kinase Array; assay type: cell-based; settings: 16 h
Protocol: For the detection of phosphorylated kinase targets, the Proteome Profiler Human Phospho-Kinase Array Kit (R&D Systems, Abingdon, UK) was used according to the manufacturer’s instructions. The ChemiDoc Imaging System (Bio-Rad Laboratories, Feldkirchen, Germany) was used for detection. 2102EP cells were harvested after 16 h of treatment with the epi-drugs. Pixel density was analyzed using Fiji ImageJ 1.53c.

[8] = test system: YST (GCT72); test: Flow cytometry apoptosis (Annexin V/PI), YST; assay type: cell-based, Human; settings: EC50, 16 h
Protocol: as §1

[9] = test system: fibroblast control cells; test: Flow cytometry apoptosis (Annexin V/PI), fibroblasts; assay type: cell-based, Human; settings: EC50, 16 h
Protocol: as §1

[10] = sorted data log2>±1.5, FDR p<0.05
[11] = 2102EP cells, Mod Spec raw data

Cc1cc(=O)n(C)c2cc(N3C(=O)CC[C@H](NS(=O)(=O)CC(C)C)[C@H]3c3ccc(Cl)cc3)ccc12 [LP99]
apoptosis induction in 2102EP-R [1]: did not induce apoptosis | GJD3 Log2 fold change vs. DMSO [2, 10]: 3.31 | GLIPR1L1 Log2 fold change vs. DMSO [2, 10]: -3.59 | GOLGA6A Log2 fold change vs. DMSO [2, 10]: -4.35 | MTRNR2L8 Log2 fold change vs. DMSO [2, 10]: 3.16 | NCKAP1L Log2 fold change vs. DMSO [2, 10]: -3.90 | TAC1 Log2 fold change vs. DMSO [2, 10]: 3.33 | A1BG Log2 fold change vs. DMSO ([2]; unsorted data): 0.41 | A1CF Log2 fold change vs. DMSO ([2]; unsorted data): 1.13 | A2M Log2 fold change vs. DMSO ([2]; unsorted data): -0.80 | apoptosis induction in JAR [3]: negligible | H1.4: K25AC, % of peptide pool [4, 11]: 0.009028% | H1.4: K25ME1, % of peptide pool [4, 11]: 2.269% | H1.4: K25ME2, % of peptide pool [4, 11]: 0.02267% | H1.4: K25ME3, % of peptide pool [4, 11]: 0.00557% | H1.4: K25UN, % of peptide pool [4, 11]: 97.6933% | H2A1: K13AC, % of peptide pool [4, 11]: 0.01093% | H2A1: K13UN, % of peptide pool [4, 11]: 99.9891% | H2A1: K15AC, % of peptide pool [4, 11]: 0.001748% | H2A1: K15UB, % of peptide pool [4, 11]: 0% | H2A1: K15UN, % of peptide pool [4, 11]: 99.9983% | H2A3: K13AC, % of peptide pool [4, 11]: 0.03196% | H2A3: K13UN, % of peptide pool [4, 11]: 99.968% | H2A3: K15AC, % of peptide pool [4, 11]: 0.03362% | H2A3: K15UB, % of peptide pool [4, 11]: 0% | H2A3: K15UN, % of peptide pool [4, 11]: 99.9664% | H2A: K5AC, % of peptide pool [4, 11]: 12.5375% | H2A: K5UN, % of peptide pool [4, 11]: 87.4625% | H2A: K9AC, % of peptide pool [4, 11]: 1.353% | H2A: K9UN, % of peptide pool [4, 11]: 98.6475% | H2A: K36AC, % of peptide pool [4, 11]: 0.0347% | H2A: K36UN, % of peptide pool [4, 11]: 99.9653% | H3: K9AC, % of peptide pool [4, 11]: 0.6876% | H3: K9ME1, % of peptide pool [4, 11]: 38.1257% | H3: K9ME2, % of peptide pool [4, 11]: 23.7135% | H3: K9ME3, % of peptide pool [4, 11]: 2.367% | H3: K9UN, % of peptide pool [4, 11]: 35.1066% | H3: K14AC, % of peptide pool [4, 11]: 29.2531% | H3: K14UN, % of peptide pool [4, 11]: 70.7469% | H3: K18AC, % of peptide pool [4, 11]: 10.1375% | H3: K18ME1, % of peptide pool [4, 11]: 0.2014% | H3: K18UN, % of peptide pool [4, 11]: 89.6611% | H3: K23AC, % of peptide pool [4, 11]: 16.6835% | H3: K23ME1, % of peptide pool [4, 11]: 0.02213% | H3: K23UN, % of peptide pool [4, 11]: 83.2943% | H3: K56AC, % of peptide pool [4, 11]: 0.1265% | H3: K56ME1, % of peptide pool [4, 11]: 0.3038% | H3: K56UN, % of peptide pool [4, 11]: 99.5697% | H3: K64AC, % of peptide pool [4, 11]: 0.01464% | H3: K64UN, % of peptide pool [4, 11]: 99.9854% | H3: K79AC, % of peptide pool [4, 11]: 0.6828% | H3: K79ME1, % of peptide pool [4, 11]: 14.7289% | H3: K79ME2, % of peptide pool [4, 11]: 6.113% | H3: K79ME3, % of peptide pool [4, 11]: 8.372% | H3: K79UN, % of peptide pool [4, 11]: 70.1029% | H3: K122AC, % of peptide pool [4, 11]: 0.1106% | H3: K122UN, % of peptide pool [4, 11]: 99.8894% | H3: Q19ME1, % of peptide pool [4, 11]: 0.008159% | H3: Q19UN, % of peptide pool [4, 11]: 99.9918% | H3: Q55ME1, % of peptide pool [4, 11]: 0.125% | H3: Q55UN, % of peptide pool [4, 11]: 99.875% | H3: R42ME2, % of peptide pool [4, 11]: 2.022% | H3: R42UN, % of peptide pool [4, 11]: 97.9783% | H3: R49ME2, % of peptide pool [4, 11]: 5.836% | H3: R49UN, % of peptide pool [4, 11]: 94.1642% | H3R2UN: K4AC, % of peptide pool [4, 11]: 0.0493% | H3R2UN: K4ME1, % of peptide pool [4, 11]: 17.3555% | H3R2UN: K4ME2, % of peptide pool [4, 11]: 0.1607% | H3R2UN: K4ME3, % of peptide pool [4, 11]: 0.06122% | H3R2UN: K4UN, % of peptide pool [4, 11]: 82.3733% | H3R2UN: Q5ME1, % of peptide pool [4, 11]: 0.0589% | H3R2UN: Q5UN, % of peptide pool [4, 11]: 99.9411% | H3.1: K27AC, % of peptide pool [4, 11]: 1.848% | H3.1: K27ME1, % of peptide pool [4, 11]: 50.2872% | H3.1: K27ME2, % of peptide pool [4, 11]: 19.0002% | H3.1: K27ME3, % of peptide pool [4, 11]: 2.587% | H3.1: K27UN, % of peptide pool [4, 11]: 26.2781% | H3.1: K36AC, % of peptide pool [4, 11]: 0.1934% | H3.1: K36ME1, % of peptide pool [4, 11]: 15.1441% | H3.1: K36ME2, % of peptide pool [4, 11]: 47.7578% | H3.1: K36ME3, % of peptide pool [4, 11]: 20.1942% | H3.1: K36UN, % of peptide pool [4, 11]: 16.7105% | H3.3: K27AC, % of peptide pool [4, 11]: 4.526% | H3.3: K27M, % of peptide pool [4, 11]: 0% | H3.3: K27ME1, % of peptide pool [4, 11]: 50.6483% | H3.3: K27ME2, % of peptide pool [4, 11]: 13.3962% | H3.3: K27ME3, % of peptide pool [4, 11]: 4.205% | H3.3: K27UN, % of peptide pool [4, 11]: 27.2241% | H3.3: K36AC, % of peptide pool [4, 11]: 1.988% | H3.3: K36ME1, % of peptide pool [4, 11]: 13.5047% | H3.3: K36ME2, % of peptide pool [4, 11]: 50.9616% | H3.3: K36ME3, % of peptide pool [4, 11]: 19.8606% | H3.3: K36UN, % of peptide pool [4, 11]: 13.6847% | H4: K5AC, % of peptide pool [4, 11]: 6.718% | H4: K5UN, % of peptide pool [4, 11]: 93.2819% | H4: K8AC, % of peptide pool [4, 11]: 9.0591% | H4: K8UN, % of peptide pool [4, 11]: 90.9409% | H4: K12AC, % of peptide pool ([4]; 2102EP cells, Mod Spec raw data, histone H4 K12 acetylated): 5.085 % of peptide pool | H4: K12UN, % of peptide pool ([4]; 2102EP cells, Mod Spec raw data, histone H4 K12 unmodified): 94.9152 % of peptide pool | H4: K16AC, % of peptide pool ([4]; 2102EP cells, Mod Spec raw data, histone H4 K16 acetylated): 42.3745 % of peptide pool | H4: K16UN, % of peptide pool ([4]; 2102EP cells, Mod Spec raw data, histone H4 K16 unmodified): 57.6255 % of peptide pool | H4: K20AC, % of peptide pool ([4]; 2102EP cells, Mod Spec raw data, histone H4 K20 acetylated): 21.754 % of peptide pool | H4: K20ME2, % of peptide pool ([4]; 2102EP cells, Mod Spec raw data, histone H4 K20 dimethylated): 43.6517 % of peptide pool | H4: K20ME1, % of peptide pool ([4]; 2102EP cells, Mod Spec raw data, histone H4 K20 monomethylated): 4.449 % of peptide pool | H4: K20ME3, % of peptide pool ([4]; 2102EP cells, Mod Spec raw data, histone H4 K20 trimethylated): 1.292 % of peptide pool | H4: K20UN, % of peptide pool ([4]; 2102EP cells, Mod Spec raw data, histone H4 K20 unmodified): 28.8535 % of peptide pool | change of histone modifications of the expected mode of action (Mod Spec) ([4]; 2102EP, EC50, 16 h, vs solvent control): general decrease in histone acetylation | EC50 [5]: ≤ 50 µM | cell cycle phase accumulation in GCT cells [6]: accumulated in the G0/G1 phase | CREB, STAT3 and STAT5 phosphorylation and total levels of β-Catenin and HSP60 [7]: decreased | ERK1/2 phosphorylation [7]: decreased | apoptosis induction in GCT72 [8]: negligible

Cc1ccc(-n2sc3ccccc3c2=O)cc1 [PBIT]
apoptosis induction in JAR [3]: negligible | apoptosis induction in fibroblast control cells [9]: only a weak apoptosis induction | EC50 [5]: ≤ 50 µM | cell cycle phase accumulation in GCT cells [6]: accumulated in the G0/G1 phase | apoptosis induction in GCT72 [8]: negligible
